Here are results for eleven molecules from US20030194377A1, “Therapeutic uses of BPI protein products in cystic fibrosis patients” (priority 1996, published 2003).

Assay [1] relates to Pseudomonas aeruginosa strain isolated from a sputum sample from a CF patient. The assay is described as follows: Dade MicroScan gram-negative panels supplemented with rBPI21. The assay is classed as cell-based. The conditions noted are these: for change of susceptibility to antibiotic: in combination with rBPI21 formulated with 0.2% poloxamer 403; for change of antibiotic MIC: in combination with rBPI21 formulated with 0.2% poloxamer 403, versus poloxamer 188 formulation; for susceptibility of the strain to combination of rBPI21 and antibiotic: supplemented with 16 μg/mL rBPI21 formulated with 0.2% poloxamer 188.

The test system of another assay is autoantibodies to BPI. The note with it: adult CF patients, Zhao et al. 1996; cited from earlier work.
In a further assay the test system is anti-BPI antibodies. Kind of assay: enzyme immunoassay of BPI antibody titers in plasma samples from cystic fibrosis patients. The assay is classed as binding, human. The note with it: 11 CF patient plasma samples, dilutions 1/100 to 1/12,800; protein coated as antigen. The procedure: Plasma samples from 11 cystic fibrosis (CF) patients were tested for the presence of anti-BPI antibodies as follows. BPI holoprotein (rBPI) or an N-terminal BPI protein product (rBPI21) were used as antigen sources in an enzyme immunoassay. The wells of Immulon 2 microtiter plates (Dynatech Laboratories Inc., Chantilly, Va.) were coated overnight at 2-8° C. with 50 uL of rBPI21 (0.5 μg/mL) or rBPI (1 μg/mL) diluted in phosphate buffered saline, pH 7.2 (PBS). Unbound BPI was removed and 200 μL of PBS containing 0.1% human serum albumin and 0.1% goat serum was added to all wells. After blocking the plates for 1 hour at room temperature, the wells were washed 3 times with 300 μL of wash buffer (PBS/0.5% Tween 20). Plasma samples were prepared as serial two-fold dilutions from 1/100 to 1/12,800. Plasma samples were diluted in triplicate with PBS containing 1% bovine serum albumin, 1% goat serum and 0.05% Tween 20 (PBS-BSA-GS/Tween). […] The absorbance at 405 nm (A405) was determined for all wells using a Vmax Plate Reader (Molecular Devices Corp., Menlo Park, Calif.).
The mean A405 for all samples were corrected for background by subtracting the mean A405 of wells receiving sample dilution buffer (no plasma) in the primary incubation step. […] An absorbance greater than 0.05 units was considered to be above background.

`CC1(C)S[C@@H]2[C@H](NC(=O)[C@H](NC(=O)N3CCNC3=O)c3ccccc3)C(=O)N2[C@H]1C(=O)O` [azlocillin]: the “change of susceptibility to antibiotic” value in assay [1] is “increased susceptibity”.
Take `C[C@H]1[C@H](NC(=O)/C(=N\OC(C)(C)C(=O)O)c2csc(N)n2)C(=O)N1S(=O)(=O)O` [aztreonam]: in assay [1], the “change of antibiotic MIC” value is listed as “further decreased the MICs”; the “susceptibility of the strain to combination of rBPI21 and antibiotic” value (“susceptibility of the strain” for short) is recorded as “susceptible”.
Take `CC1(C)S[C@@H]2[C@H](NC(=O)C(C(=O)O)c3ccccc3)C(=O)N2[C@H]1C(=O)O` (stereo partly shown) [carbenicilin]: in assay [1], the “susceptibility of the strain” value was “susceptible”.
With `O=C(N[C@H](CO)[C@H](O)c1ccc([N+](=O)[O-])cc1)C(Cl)Cl` [chloramphenicol], in assay [1], the “change of susceptibility to antibiotic” value is reported as “increased susceptibity”.
Regarding `O=C(O)c1cn(C2CC2)c2cc(N3CCNCC3)c(F)cc2c1=O` [ciprofloxacin], in assay [1], the “change of antibiotic MIC” value is reported as “further decreased the MICs”; the “susceptibility of the strain” value is “susceptible”.
Consider `CCN[C@@H]1C[C@H](N)[C@@H](O[C@H]2OC(CN)=CC[C@H]2N)[C@H](O)[C@H]1O[C@H]1OC[C@](C)(O)[C@H](NC)[C@H]1O` [netilmicin], for which the “change of susceptibility to antibiotic” value in assay [1] is “increased susceptibity”.
With `NC[C@H]1O[C@H](O[C@H]2[C@H](O)[C@@H](O[C@H]3O[C@H](CO)[C@@H](O)[C@H](N)[C@H]3O)[C@H](N)C[C@@H]2N)[C@H](N)C[C@@H]1O` [tobramycin], the “susceptibility of the strain” value in assay [1] is on record as “susceptible”.
In the case of Augmentin, the “change of susceptibility to antibiotic” value in assay [1] is given as “increased susceptibity”.
Take sulfamethoxazole/trimethoprim: in assay [1], the “susceptibility of the strain” value was “susceptible”.

B1: BPI: bactericidal/permeability-increasing protein isolated from granules of polymorphonuclear leukocytes (protein, UniProt P17213 32-487, looked up)
Bactericidal …: VNPGVVVRISQKGLDYASQQGTAALQKELKRIKIPDYSDSFKIKHLGKGHYSFYSMDIREFQLPSSQISMVPNVGLKFSISNANIKISGKWKAQKRFLKMSGNFDLSIEGMSISADLKLGSNPTSGKPTITCSSCSSHINSVHVHISKSKVGWLIQLFHKKIESALRNKMNSQVCEKVTNSVSSELQPYFQTLPVMTKIDSVAGINYGLVAPPATTAETLDVQMKGEFYSENHHNPPPFAPPVMEFPAAHDRMVYLGLSDYFFNTAGLVYQEAGVLKMTLRDDMIPKESKFRLTTKFFGTFLPEVAKKFPNMKIQIHVSASTPPHLSVQPTGLTFYPAVDVQAFAVLPNSSLASLFLIGMHTTGSMEVSAESNRLVGELKLDRLLLELKHSNIGPFPVELLQDIMNYIVPILVLPRVNEKLQKGFPLPTPARVQLYNVVLQPHQNFLLFGADVVYK
Consider B1, for which, in the assay with autoantibodies to BPI, the “sera with autoantibodies to BPI” value is 60/66.

B2: rBPI: recombinant BPI holoprotein (protein, UniProt P17213 32-487, looked up)
Bactericidal …: VNPGVVVRISQKGLDYASQQGTAALQKELKRIKIPDYSDSFKIKHLGKGHYSFYSMDIREFQLPSSQISMVPNVGLKFSISNANIKISGKWKAQKRFLKMSGNFDLSIEGMSISADLKLGSNPTSGKPTITCSSCSSHINSVHVHISKSKVGWLIQLFHKKIESALRNKMNSQVCEKVTNSVSSELQPYFQTLPVMTKIDSVAGINYGLVAPPATTAETLDVQMKGEFYSENHHNPPPFAPPVMEFPAAHDRMVYLGLSDYFFNTAGLVYQEAGVLKMTLRDDMIPKESKFRLTTKFFGTFLPEVAKKFPNMKIQIHVSASTPPHLSVQPTGLTFYPAVDVQAFAVLPNSSLASLFLIGMHTTGSMEVSAESNRLVGELKLDRLLLELKHSNIGPFPVELLQDIMNYIVPILVLPRVNEKLQKGFPLPTPARVQLYNVVLQPHQNFLLFGADVVYK
Regarding B2, in the assay with anti-BPI antibodies, the “plasma samples with detectable immune response (A405>0.05)” value is 7/11.
